The text below walks through data of US20130288990A1, “CONTROLLING PESTS BY COMBINING INSECTICIDES AND TRANSGENIC PLANTS BY APPLYING DIRECTLY TO LEAVES AND ROOTS” (priority 2007, published 2013).

Format in all cases: in vivo
For assay [1], the system named is Spodoptera exigua. As to the kind of experiment: Spodoptera exigua test (leaf application), transgenic maize. The source says:
(§1) A synergistic effect in insecticides and acaricides is always present when the effect of the present invention's combinations is greater than the expected effect, which for a given combination can be calculated after S. R. Colby, Weeds 15 (1967), 20-22 as follows:
(§2) when • X is the kill rate expressed in % of the untreated control on using active compound A at an application rate of m g/ha or in a concentration of m ppm, • Y is the kill rate expressed in % of the untreated control on using active compound B at an application rate of n g/ha or in a concentration of n ppm and • Z is the kill rate expressed in % of the untreated control on using active compound C at an application rate of r g/ha or in a concentration of r ppm, • E is the efficacy on using active compounds A and B and C in application rates of m and n and r g/ha then
(§3) If the actual kill rate is greater than calculated, then the killing effect of the combination is superadditive, i.e., a synergistic effect is present. In this case, the actually observed kill rate has to be greater than that calculated from the above-recited formula for the expected kill rate (E).
Pots each holding 5 transgenic maize plants with Lepidoptera, Coleoptera and/or herbicide resistance are treated in 2 replications against the small mottled willow (Spodoptera exigua).
(§4) After the desired time, the kill in % is determined 100% means that all the caterpillars were killed; 0% means that no caterpillars were killed.

In assay [2] the test system is Heliothis armigera. Put plainly: Heliothis armigera test (leaf application), transgenic cotton.
Description: as §1, §2, §3
Individually potted transgenic cotton plants with Lepidoptera resistance and herbicide resistance (line DP444 BG/RR) are treated with the desired product against the cotton ball worm (Heliothis armigera).
as §4

Assay [3] relates to Spodoptera frugiperda. Put plainly: Spodoptera frugiperda test (leaf application), transgenic cotton.
Description: as §1, §2, §3
Individually potted transgenic cotton plants with Lepidoptera resistance and herbicide resistance (line DP444 BG/RR) are treated with the desired product against the army worm (Spodoptera frugiperda)
as §4

Assay [4] relates to Spodoptera frugiperda. Put plainly: Spodoptera frugiperda test (drench application), transgenic maize.
Description: as §1, §2, §3
The earth of the pots each with 5 transgenic maize plants with Lepidoptera, Coleoptera and/or herbicide resistance is drenched with the desired product. Then, the plants are infected with larvae of the army worm (Spodoptera frugiperda).
as §4

The test system of assay [5] is Spodoptera frugiperda. As to the kind of experiment: Spodoptera frugiperda test (leaf application), transgenic maize.
Description: as §1, §2, §3
Pots each holding 5 transgenic maize plants with Lepidoptera, Coleoptera and/or herbicide resistance are treated in 2 replications against the army worm (Spodoptera frugiperda).
as §4

For assay [6], the system named is Aphis gossypii. Put plainly: Aphis gossypii test (leaf application), transgenic cotton.
Description: as §1, §2
If the actual kill rate is greater than calculated, then the killing effect of the combination is superadditive, i.e., a synergistic effect is present. In this case, the actually observed kill rate has to be greater than that calculated from the above-recited formula for the expected kill rate (E). […]
After the desired time, the kill in % is determined 100% means that all the aphids were killed; 0% means that no aphids were killed.

For `CN/C(=N\[N+](=O)[O-])NCc1cnc(Cl)s1` [Clothianidin], in assay [1] (4 ppm), the “Kill in % after 1 d” value is on record as 0%. Also, the “Kill in % after 4 d” value amounted to 0% in assay [2] (0.16 ppm), 0% in assay [3] (0.16 ppm) and 10% in assay [4] (4 ppm).
Regarding `CNC(=O)c1cc(Cl)cc(C)c1NC(=O)c1cc(Br)nn1-c1ncccc1Cl` [(I-1)], the “Kill in % after 4 d” value in assay [1] (0.032 ppm) amounted to 0%; in assay [1] (0.16 ppm) it was 0%; in assay [5] (0.0064 ppm), 0%; in assay [2] (0.032 ppm) it was 50%; in assay [3] (0.032 ppm), 70%; in assay [6] (0.16 ppm), 0%. The “Kill in % after 4 d” value in assay [4] (4 ppm) is given as 0%; in assay [4] (20 ppm) it was 50%. The “Kill in % after 1 d” value in assay [1] (0.16 ppm) is 0%; in assay [5] (0.16 ppm), 0%; in assay [4] (20 ppm) it was 30%. Besides, the “Kill in % after 6 d” value in assay [3] (0.032 ppm) turned out to be 15%. For the same compound, the “Kill in % after 3 d” value in assay [4] (20 ppm) was determined as 45%.
For the compound Abamectin, the “Kill in % after 4 d” value in assay [1] (0.16 ppm) is 35%; in assay [2] (0.16 ppm) it was 30%; in assay [4] (4 ppm) it was 0%. The “Kill in % after 1 d” value in assay [5] (0.16 ppm) is on record as 10%; in assay [4] (4 ppm) it was 0%.
With `O=[N+]([O-])NC1=NCCN1Cc1ccc(Cl)nc1` [Imidacloprid], the “Kill in % after 1 d” value in assay [1] (4 ppm) and in assay [5] (4 ppm) was 0% throughout. Further, the “Kill in % after 6 d” value in assay [3] (4 ppm) stood at 10%. Besides, the “Kill in % after 3 d” value in assay [4] (4 ppm) was 0%.
`N#Cc1nn(-c2c(Cl)cc(C(F)(F)F)cc2Cl)c(N)c1[S+]([O-])C(F)(F)F` (stereo not drawn) [Fipronil]: the results for the “Kill in % after 4 d” value in assay [1] (4 ppm), in assay [6] (4 ppm) and in assay [4] (20 ppm) were 0%, 25% and 0%, respectively.
With Spinosad, the “Kill in % after 4 d” value in assay [1] (0.16 ppm) came out at 20%; in assay [5] (0.16 ppm) it was 0%; in assay [2] (0.16 ppm) it was 20%; in assay [4] (4 ppm), 0%.
